According to US9498548B2, “Method of using oxidative reductive potential water solution in dental applications” (priority 2005, dated 2016):
Like-named read-outs stand apart in the source and are kept apart here.

Key:
[1] = Root canal treatment study (irrigation and oral rinses); type: in vivo, patients; conditions: ORP water solution 109 pts; 2.5% SH 129 pts
Source text: Acute root canal was defined as an X-ray image showing a periapical lesion in addition to negative vitality and positive percussion clinical tests. Retrospective analysis of paired-cases presenting similar root canal infections between 2002 and 2003 at the same Institution was undertaken for the control group (the “SH” group) (see FIGS. 7A-B).
During the process the ducts were isolated to avoid contamination. The cavity was opened and the root drilled. ORP water solution flush started with the drilling process instead of using water or saline solution. Instrumentation was conducted according to the crown down technique using rotatory NiTi instruments. Instrumentation was done according to the extension of the duct as measured by the X ray. Duct irrigation was conducted with the ORP water solution after using each instrument. […] The duct was dried out with dental paper and occlusion done by lateral condensation with calcium hydroxide and epoxy resin. […] After 30 days, oral rinse once daily indefinitely was recommended.
A standard art-known treatment procedure with sodium hypochlorite (SH) was conducted for root canal treatment in control patients. Particular care was paid to avoid infiltration of the solution to the periapical region during the manipulation. All patients in the control group received ampicilin (500 mg tid) or cephalexin (500 mg bid) for 7 days as well as anti-inflammatory drugs (naproxen 500 mg bid) as necessary.
The demographic characteristics were similar for both groups (FIGS. 7 A & B).

HDFs = conditions: human, 1 month, 5 µM
[2] = system: human diploid fibroblasts (HDFs); assay: Cell viability, apoptosis and necrosis by flow cytometry; type: cell-based; conditions: 880 mM
Method: HP is known to be toxic to eukaryotic cells, increasing apoptosis and necrosis and reducing cellular viability. […] HDF cultures were obtained from three different foreskins, which were pooled and cryopreserved together for the purpose of this study. Only diploid cells were used for all experiments. […] Simultaneous analyses of these parameters were performed in the same cell populations by flow cytometry using: […] FIG. 4B) Annexin V-FITC and FIG. 4C) Propidium iodide. FIGS. 8A-8C disclose percentage values expressed as mean±SD (n=3).

[3] = system: murine polychromatic erythrocytes; conditions: for PCE/NCE ratio: bone marrow, cyclophosphamide 8 mg/mL, 12.5 ml/kg i.p. day 2
Method: The mammalian in vivo micronucleus test is used for the identification of substances which cause damage to chromosomes or the mitotic apparatus of murine polychromatic erythrocytes. This damage results in the formation of “micronuclei,” intracellular structures containing lagging chromosome fragments or isolated whole chromosomes. […] The positive control mice received a single intraperitoneal injection of cyclophosphamide (8 mg/mL, 12.5 ml/kg) on day 2. All mice were observed immediately after injection for any adverse reactions. […] On day 3, all mice were weighed and terminated.
The femurs were excised from the terminated mice, the bone marrow was extracted, and duplicate smear preparations were performed for each mouse. The bone marrow slides for each animal were read at 40× magnification. The ratio of polychromatic erythrocytes (PCE) to normochromatic erythrocytes (NCE), an index of bone marrow toxicity, was determined for each mouse by counting a total of at least 200 erythrocytes. Then a minimum of 2000 scoreable PCE per mouse were evaluated for the incidence of micronucleated polychromatic erythrocytes. Statistical analysis of the data were done using the Mann and Whitney test (at 5% risk threshold) from a statistical software package (Statview 5.0, SAS Institute Inc., USA).

Question: With `[Na+].[O-]Cl` [2.5% SH, sodium hypochlorite] as the compound, how does the dental losses [1] read?
Answer: Dental losses only occurred in the SH control group

Question: What about the “patients with an acute local reaction after root canal treatment” value [1] of the same compound?
Answer: 16 patients

Question: And the “total number of affected teeth” value [1]?
Answer: 23

Question: With `OO` [HP, hydrogen peroxide] as the compound, how does the “cells with increased SA-β-Gal expression” value (HDFs) read?
Answer: 86%

Question: And the Cell viability ([2]; 5 min)?
Answer: 55%

Question: And the Cell viability ([2]; 30 min)?
Answer: 5%

Question: Which PCE/NCE ratio ([3]; females) does the source give for `O=P1(N(CCCl)CCCl)NCCCO1` (stereo not drawn) [cyclophosphamide] here?
Answer: 0.73

Question: And the PCE/NCE ratio ([3]; males)?
Answer: 0.77

Question: And the “number of polychromatic erythrocytes bearing micronuclei” value ([3]; males, minimum of 2000 PCE per mouse evaluated)?
Answer: 11.0
